# ChEMBL document CHEMBL1201862, “PubChem BioAssay data set” (2004)
#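 Five compound concentrations were applied to cells in 96-well plates for 48 hours; endpoints were derived by simple linear interpolation of the resulting dose-response curve. GI50 is the concentration that inhibits growth by half.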 Active and inactive are the calls of the source. Cut-off read from the data, not from the text of the source: active = GI50 up to about 1.1 µM and inactive = higher.
# Tests used:
# Assay in all cases: NCI anticancer screen, dose series, 48 h
# MOLT-4 = system: MOLT-4
# NCI-H522 = system: NCI-H522
# OVCAR-3 = system: OVCAR-3
# 786-0 = system: 786-0
# M19-MEL = system: M19-MEL
# DU-145 = system: DU-145
# NCI/ADR-RES = system: NCI/ADR-RES
# SF-539 = system: SF-539
# Hs-578T = system: Hs-578T
# RPMI-8226 = system: RPMI-8226
# SK-OV-3 = system: SK-OV-3
# DMS-273 = system: DMS-273
# SK-MEL-28 = system: SK-MEL-28
# HCT-15 = system: HCT-15
# T47D = system: T47D
# MCF7 = system: MCF7
# HOP-62 = system: HOP-62
# K562 = system: K562
# CCRF-CEM = system: CCRF-CEM
# SF-268 = system: SF-268
# LOX IMVI = system: LOX IMVI
# DLD-1 = system: DLD-1
# EKVX = system: EKVX
# UACC-257 = system: UACC-257
# NCI-H23 = system: NCI-H23
# MDA-MB-231 = system: MDA-MB-231
# SF-295 = system: SF-295
# KM-20L2 = system: KM-20L2
# XF498 = system: XF498
# MDA-MB-435 = system: MDA-MB-435
# BT-549 = system: BT-549
# A549 = system: A549
# HCT-116 = system: HCT-116
# CAKI-1 = system: CAKI-1
# UACC-62 = system: UACC-62
# OVCAR-5 = system: OVCAR-5
# U-251 = system: U-251
# SW-620 = system: SW-620
# PC-3 = system: PC-3
# SK-MEL-5 = system: SK-MEL-5
# KM12 = system: KM12
# SNB-75 = system: SNB-75
# SK-MEL-2 = system: SK-MEL-2
# IGROV-1 = system: IGROV-1
# LXFL 529 = system: LXFL 529
# RXF 631 = system: RXF 631
# SN12C = system: SN12C
# ACHN = system: ACHN
# DMS-114 = system: DMS-114
# SR = system: SR
# M14 = system: M14
# RXF 393 = system: RXF 393
# HOP-92 = system: HOP-92
# SNB-19 = system: SNB-19
# HCC 2998 = system: HCC 2998
# TK-10 = system: TK-10
# UO-31 = system: UO-31
# NCI-H226 = system: NCI-H226
# NCI-H460 = system: NCI-H460
# COLO 205 = system: COLO 205
# HT-29 = system: HT-29
# A498 = system: A498
# OVCAR-8 = system: OVCAR-8
# Malme-3M = system: Malme-3M
# OVCAR-4 = system: OVCAR-4
# HL-60 = system: HL-60
smiles,measurement,setting,value
COC1C(OC(=O)/C=C/C=C/C=C/C=C\C(=O)O)CCC2(CO2)C1C1(C)OC1CC=C(C)C (stereo not given),GI50,MOLT-4,> 100 µM (inactive)
same,GI50,NCI-H522,> 100 µM (inactive)
same,GI50,OVCAR-3,> 100 µM (inactive)
same,GI50,786-0,> 100 µM (inactive)
same,GI50,M19-MEL,> 100 µM (inactive)
same,GI50,DU-145,> 100 µM (inactive)
same,GI50,NCI/ADR-RES,> 100 µM (inactive)
same,GI50,SF-539,> 100 µM (inactive)
same,GI50,Hs-578T,> 100 µM (inactive)
same,GI50,RPMI-8226,> 100 µM (inactive)
same,GI50,SK-OV-3,> 89.7 µM (inactive)
same,GI50,DMS-273,> 100 µM (inactive)
same,GI50,SK-MEL-28,> 100 µM (inactive)
same,GI50,HCT-15,> 100 µM
same,GI50,T47D,> 100 µM (inactive)
same,GI50,MCF7,> 100 µM (inactive)
same,GI50,HOP-62,> 100 µM (inactive)
same,GI50,K562,> 56.5 µM (inactive)
same,GI50,CCRF-CEM,> 100 µM (inactive)
same,GI50,SF-268,> 100 µM (inactive)
same,GI50,LOX IMVI,> 100 µM (inactive)
same,GI50,DLD-1,> 100 µM (inactive)
same,GI50,EKVX,> 100 µM (inactive)
same,GI50,UACC-257,> 100 µM (inactive)
same,GI50,NCI-H23,> 100 µM (inactive)
same,GI50,MDA-MB-231,> 100 µM (inactive)
same,GI50,SF-295,> 100 µM (inactive)
same,GI50,KM-20L2,> 100 µM (inactive)
same,GI50,XF498,> 100 µM (inactive)
same,GI50,MDA-MB-435,> 100 µM (inactive)
same,GI50,BT-549,> 100 µM (inactive)
same,GI50,A549,> 100 µM (inactive)
same,GI50,HCT-116,> 100 µM (inactive)
same,GI50,CAKI-1,> 100 µM (inactive)
same,GI50,UACC-62,> 100 µM (inactive)
same,GI50,OVCAR-5,> 100 µM (inactive)
same,GI50,U-251,> 100 µM (inactive)
same,GI50,SW-620,> 100 µM (inactive)
same,GI50,PC-3,> 100 µM (inactive)
same,GI50,SK-MEL-5,> 100 µM (inactive)
same,GI50,KM12,> 100 µM (inactive)
same,GI50,SNB-75,> 100 µM (inactive)
same,GI50,SK-MEL-2,> 100 µM (inactive)
same,GI50,IGROV-1,> 100 µM (inactive)
same,GI50,LXFL 529,> 100 µM (inactive)
same,GI50,RXF 631,> 100 µM (inactive)
same,GI50,SN12C,> 100 µM (inactive)
same,GI50,ACHN,> 100 µM (inactive)
same,GI50,DMS-114,> 100 µM (inactive)
same,GI50,SR,> 100 µM (inactive)
same,GI50,M14,> 100 µM (inactive)
same,GI50,RXF 393,> 100 µM (inactive)
same,GI50,HOP-92,> 100 µM (inactive)
same,GI50,SNB-19,> 100 µM (inactive)
same,GI50,HCC 2998,> 100 µM (inactive)
same,GI50,TK-10,> 100 µM (inactive)
same,GI50,UO-31,> 100 µM (inactive)
same,GI50,NCI-H226,> 100 µM (inactive)
same,GI50,NCI-H460,> 100 µM (inactive)
same,GI50,COLO 205,> 100 µM (inactive)
same,GI50,HT-29,> 100 µM (inactive)
same,GI50,A498,> 100 µM (inactive)
same,GI50,OVCAR-8,> 100 µM (inactive)
same,GI50,Malme-3M,131 µM (inactive)
same,GI50,OVCAR-4,> 100 µM (inactive)
CN(C)/N=C(/c1nc2ccc(Cl)cc2nc1O)C(O)c1ccc(C(O)/C(=N\N(C)C)c2nc3ccc(Cl)cc3nc2O)cc1 (stereo not given),GI50,MOLT-4,52.4 µM (inactive)
same,GI50,NCI-H522,> 100 µM (inactive)
same,GI50,OVCAR-3,> 100 µM (inactive)
same,GI50,786-0,> 100 µM (inactive)
same,GI50,M19-MEL,> 100 µM (inactive)
same,GI50,SF-539,> 100 µM (inactive)
same,GI50,RPMI-8226,14.1 µM (inactive)
same,GI50,SK-OV-3,> 100 µM (inactive)
same,GI50,SK-MEL-28,> 100 µM (inactive)
same,GI50,HOP-62,93.1 µM (inactive)
same,GI50,K562,60.3 µM (inactive)
same,GI50,CCRF-CEM,6.43 µM (inactive)
same,GI50,SF-268,> 100 µM (inactive)
same,GI50,HL-60,27.9 µM (inactive)
same,GI50,DLD-1,> 100 µM (inactive)
same,GI50,EKVX,> 100 µM (inactive)
same,GI50,UACC-257,> 100 µM (inactive)
same,GI50,NCI-H23,> 100 µM (inactive)
same,GI50,SF-295,> 100 µM (inactive)
same,GI50,KM-20L2,84.9 µM (inactive)
same,GI50,A549,> 100 µM (inactive)
same,GI50,HCT-116,> 100 µM (inactive)
same,GI50,CAKI-1,> 100 µM (inactive)
same,GI50,UACC-62,> 100 µM (inactive)
same,GI50,OVCAR-5,> 100 µM (inactive)
same,GI50,SW-620,> 100 µM (inactive)
same,GI50,SK-MEL-5,> 100 µM (inactive)
same,GI50,KM12,> 100 µM (inactive)
same,GI50,SK-MEL-2,> 100 µM (inactive)
same,GI50,IGROV-1,> 100 µM (inactive)
same,GI50,RXF 631,91.4 µM (inactive)
same,GI50,SN12C,> 100 µM (inactive)
same,GI50,ACHN,> 100 µM (inactive)
same,GI50,DMS-114,53.7 µM (inactive)
same,GI50,SR,38 µM (inactive)
same,GI50,M14,> 100 µM (inactive)
same,GI50,RXF 393,> 100 µM (inactive)
same,GI50,HOP-92,81.7 µM (inactive)
same,GI50,SNB-19,> 100 µM (inactive)
same,GI50,HCC 2998,> 100 µM (inactive)
same,GI50,TK-10,> 100 µM (inactive)
same,GI50,UO-31,> 100 µM (inactive)
same,GI50,NCI-H460,> 100 µM (inactive)
same,GI50,COLO 205,> 100 µM (inactive)
same,GI50,HT-29,> 100 µM (inactive)
same,GI50,A498,61 µM (inactive)
same,GI50,OVCAR-8,> 100 µM (inactive)
same,GI50,Malme-3M,> 100 µM (inactive)
same,GI50,OVCAR-4,> 100 µM (inactive)
CCCCCCCCCCCCCCCCCC(=O)NCC(COP(=O)([O-])OCC[N+](C)(C)C)OCC (stereo not given),GI50,SF-539,17.7 µM (inactive)
same,GI50,SK-OV-3,19.4 µM (inactive)
same,GI50,DMS-273,0.137 µM (active)
same,GI50,SK-MEL-28,18.2 µM (inactive)
same,GI50,LOX IMVI,24.9 µM (inactive)
same,GI50,EKVX,21.9 µM (inactive)
same,GI50,UACC-257,18.6 µM (inactive)
same,GI50,NCI-H23,19.7 µM (inactive)
same,GI50,KM-20L2,0.237 µM (active)
same,GI50,A549,19.2 µM (inactive)
same,GI50,SK-MEL-5,17.7 µM (inactive)
same,GI50,RXF 631,22.2 µM (inactive)
same,GI50,DMS-114,18.5 µM (inactive)
same,GI50,SNB-19,0.174 µM (active)
same,GI50,UO-31,19.5 µM (inactive)
same,GI50,Malme-3M,21.3 µM (inactive)
